Common to all, as to type: cell-based
The test system of assay [1] is Wnt activity (Sp5-Luc reporter, SW480 colon carcinoma cells). Description: Screening assay for Wnt activity (Sp5-Luc reporter gene assay in SW480 cells). Particulars: Homo sapiens; for EC50: Sp5-Luc reporter, SW480 cells, incubated overnight; for inhibition at 10 µM: SW480, read-out: percent inhibition at 10 μM. An excerpt: The screening assay for Wnt activity is described as follows. Reporter cell lines can be generated by stably transducing cancer cell lines (e.g., colon cancer) or primary cells (e.g., IEC-6 intestinal cells) with a lentiviral construct that includes a Wnt-responsive promoter driving expression of the firefly luciferase gene.
SW480 colon carcinoma cells were transduced with a lentiviral vector expressing luciferase with a human Sp5 promoter consisting of a sequence of eight TCF/LEF binding sites. SW480 cells stably expressing the Sp5-Luc reporter gene and a hygromycin resistance gene were selected by treatment with 150 μg/mL of hygromycin for 7 days. These stably transduced SW480 cells were expanded in cell culture and used for all further screening activities. […] For Sp5-Luc reporter gene assays, the cells were plated at 4,000 cells/well in 384-well plates with medium containing 1% fetal bovine serum and incubated overnight at 37° C. and 5% CO2. Following incubation, 20 μl of BrightGlo luminescence reagent (Promega) was added to each well of the 384-well assay plates. The plates were placed on an orbital shaker for 2 min and then luminescence was quantified using the Envision (Perkin Elmer) plate reader. Readings were normalized to DMSO only treated cells, and normalized activities were utilized for EC50 calculations using the dose-response log (inhibitor) vs. response-variable slope (four parameters) nonlinear regression feature available in GraphPad Prism 5.0 (or Dotmatics).
(In general: Reporter assays use an easily measured gene product as a stand-in for the process of interest.)

A further assay has as its system SW480 colon cancer cells. Description: Cell viability assay (CellTiter-Blue). Particulars: Homo sapiens; for EC50: 96 h, SW480 cell viability, four days, CellTiter-Blue; for inhibition at 10 µM: SW480, 96 h, read-out: percent inhibition at 10 μM. Here is the method: Representative compounds were screened using the following assay procedure to assess the effect on cell viability as described below.
Approximately 2×10^3 SW480 colon cancer cells were seeded into each well and allowed to incubate in the presence or absence of compound for four days at 37° C./5% CO2. Eight replicates of DMSO-treated cells served as controls and cells treated with compound were performed in duplicate.
After incubation, 20 μL of CellTiter-Blue (Promega) was added to each well allowed to incubate for approximately 3 hours. This reagent was a buffered solution which contains resazurin, metabolically active cells were able to reduce rezarurin (blue) into resorufin (pink) which was highly fluorescent. This measured fluorescence was used as a readout for cell viability.
For orientation: Alamar Blue is a resazurin reagent that responds to reducing activity.

The test system of the next assay is IL-6 (THP-1 cells). Description: IL-6 inhibition in LPS-stimulated THP-1 cells (HTRF). Particulars: Homo sapiens; for EC50: IL6 by HTRF, THP-1 cells, 500 ng/mL LPS, 22 hours; for inhibition at 10 µM: THP-1, read-out: percent inhibition at 10 M. The method, then: THP-1 cells were cultured in basal media with 1% FBS for 24 hours before the start of the assay. […] THP-1 cells were plated at 5000 cells/well in the 384-well plates and incubated at 37° C. for 2 h. 500 ng/mL of LPS was added after 2 hours and cells were incubated for another 22 hours at 37° C. Plates were spun in a centrifuge for 1 minute at […] and a mixture of anti-IL6 XL665, and anti-IL6 Cryptate diluted in reconstitution buffer (Cisbio Inc.) was added to each well. Following incubation for 3 hrs at room temperature, Homogeneous Time-Resolved Fluorescence (HTRF) was measured using the Envision (Perkin Elmer) at 665 nm and […]. The ratio of fluorescence at 665 nm to 620 nm was used as a readout for IL6 quantification. All samples were processed in duplicate. Readings were normalized to DMSO treated cells and normalized activities were utilized for EC50 calculations using the dose-response log (inhibitor) vs. response-variable slope (four parameters) nonlinear regression feature available in GraphPad Prism 5.0 (or Dotmatics).
A general note: TR-FRET usually uses a lanthanide donor and a delayed reading to cut background.

In assay [2] the test system is primary human fibroblasts derived from IPF patients (LL29 cells) treated with TGF-β1. Description: Inhibition of the fibrotic process (αSMA staining) in TGF-β1-treated fibroblasts. The following applies: Fibroblast, 96 h; for EC50: % αSMA-positive LL29 cells, TGF-β1 20 ng/mL, 4 days; for inhibition at 10 µM: read-out: percent inhibition at 10 μM. The method, then:
Representative compounds were screened using primary human fibroblasts (derived from IPF patients) treated with TGF-β1 to determine their ability to inhibit the fibrotic process.
LL29 cells are plated at 1,500 cells/well in 80 μL/well F12 medium supplemented with 1% Fetal Bovine Serum. […] Wells treated with TGF-P1 and containing DMSO were used as controls. […] Following incubation for 4 days, SYTOX green nucleic acid stain (Life Technologies [Thermo Fisher Scientific]) was added to the wells at a final concentration of 1 μM and incubated at room temperature for 30 min.

As a reminder, the EC50 is the concentration at which the effect is half-maximal. A high value points to a less potent agent. By inhibition is commonly meant how much of the control response was suppressed.

The structures appear in SMILES notation.

As to `O=C(Cc1ccccc1)Nc1cncc(-c2ccc3[nH]nc(-c4cc5c(-c6cccc(F)c6)nccc5[nH]4)c3c2)c1` [Compound 10, N-(5-(3-(4-(3-Fluorophenyl)-1H-pyrrolo[3,2-c]pyridin-2-yl)-1H-indazol-5-yl)pyridin-3-yl)-2-phenylacetamide], the half-maximal effective concentration (EC50) was found to be 0.875 µM in assay [1], 1.02 µM with SW480 colon cancer cells, 0.66 µM in the assay on IL-6 (THP-1 cells) and 0.63 µM in assay [2].

For the molecule `Fc1cccc(-c2nccc3[nH]c(-c4n[nH]c5ccc(-c6ccncc6)cc45)cc23)c1` [Compound 18, 3-(4-(3-Fluorophenyl)-1H-pyrrolo[3,2-c]pyridin-2-yl)-5-(pyridin-4-yl)-1H-indazole], the inhibition at 10 µM is 58.3% in assay [1] and 8.4% with IL-6 (THP-1 cells). In addition, the EC50 in assay [1] was above 10 µM; in the assay with SW480 colon cancer cells, 1.86 µM; with IL-6 (THP-1 cells), above 10 µM; in assay [2] it was 4.35 µM.

As to `O=C(Nc1cncc(-c2ccc3[nH]nc(-c4cc5c(-c6cccc(F)c6)nccc5[nH]4)c3c2)c1)C1CCCCC1` [Compound 23, N-(5-(3-(4-(3-Fluorophenyl)-1H-pyrrolo[3,2-c]pyridin-2-yl)-1H-indazol-5-yl)pyridin-3-yl)cyclohexanecarboxamide], the EC50 in assay [1] is 1.4 µM; with SW480 colon cancer cells it was 1.14 µM; in the assay with IL-6 (THP-1 cells), 0.108 µM; in assay [2] it was 1.46 µM.

Turning to `Fc1cccc(-c2nccc3[nH]c(-c4n[nH]c5ccc(-c6ccccn6)cc45)cc23)c1` [Compound 28, 3-(4-(3-Fluorophenyl)-1H-pyrrolo[3,2-c]pyridin-2-yl)-5-(pyridin-2-yl)-1H-indazole], the EC50 in assay [1] stood at 1.08 µM; with SW480 colon cancer cells it was 0.576 µM; in the assay with IL-6 (THP-1 cells) it was 3.09 µM; in assay [2], 0.421 µM.

Consider `CC(C)CC(=O)Nc1cncc(-c2ccc3[nH]nc(-c4cc5c(-c6ccc(F)cc6)nccc5[nH]4)c3c2)c1` [Compound 30, N-(5-(3-(4-(4-Fluorophenyl)-1H-pyrrolo[3,2-c]pyridin-2-yl)-1H-indazol-5-yl)pyridin-3-yl)-3-methylbutanamide], for which the EC50 in assay [1] was found to be 0.442 µM; in the assay on SW480 colon cancer cells, 0.439 µM; with IL-6 (THP-1 cells), 1.3 µM; in assay [2] it was 0.329 µM.

Turning to `Cc1ccncc1-c1ccc2[nH]nc(-c3cc4c(-c5ccc(F)cc5)nccc4[nH]3)c2c1` [Compound 33, 3-(4-(4-Fluorophenyl)-1H-pyrrolo[3,2-c]pyridin-2-yl)-5-(4-methylpyridin-3-yl)-1H-indazole], the EC50 is 3.72 µM in assay [1], 3.85 µM with SW480 colon cancer cells, above 10 µM in the assay with IL-6 (THP-1 cells) and 2 µM in assay [2]. The inhibition at 10 µM with IL-6 (THP-1 cells) was determined as 36.8%.

With `CC(C)(C)C(=O)Nc1cncc(-c2ccc3[nH]nc(-c4cc5c(-c6ccc(F)cc6)nccc5[nH]4)c3c2)c1` [Compound 36, N-(5-(3-(4-(4-Fluorophenyl)-1H-pyrrolo[3,2-c]pyridin-2-yl)-1H-indazol-5-yl)pyridin-3-yl)pivalamide], the EC50 is 0.742 µM in assay [1], 0.659 µM in the assay on SW480 colon cancer cells, 0.207 µM in the assay on IL-6 (THP-1 cells) and 0.745 µM in assay [2].

Take `O=C(Nc1cncc(-c2ccc3[nH]nc(-c4cc5c(-c6ccc(F)cc6)nccc5[nH]4)c3c2)c1)c1ccccc1` [Compound 39, N-(5-(3-(4-(4-Fluorophenyl)-1H-pyrrolo[3,2-c]pyridin-2-yl)-1H-indazol-5-yl)pyridin-3-yl)benzamide]: the EC50 in assay [1] amounted to 1.61 µM; with SW480 colon cancer cells it was 0.54 µM; in the assay on IL-6 (THP-1 cells), 3.46 µM; in assay [2] it was 0.501 µM.

As for `CC(C)Nc1cncc(-c2ccc3[nH]nc(-c4cc5c(-c6ccc(F)cc6)nccc5[nH]4)c3c2)c1` [Compound 40, 5-(3-(4-(4-Fluorophenyl)-1H-pyrrolo[3,2-c]pyridin-2-yl)-1H-indazol-5-yl)-N-isopropylpyridin-3-amine], the EC50 in assay [1] stood at 0.539 µM; in the assay with SW480 colon cancer cells, 0.779 µM; in the assay with IL-6 (THP-1 cells), 0.545 µM; in assay [2], 0.549 µM.

In the case of `CC(C)(C)CC(=O)Nc1cncc(-c2ccc3[nH]nc(-c4cc5c(-c6ccc(F)cc6)nccc5[nH]4)c3c2)c1` [Compound 44, N-(5-(3-(4-(4-Fluorophenyl)-1H-pyrrolo[3,2-c]pyridin-2-yl)-1H-indazol-5-yl)pyridin-3-yl)-3,3-dimethylbutanamide], the inhibition at 10 µM in assay [1] came to 19.5%; with SW480 colon cancer cells, 7.7%; in the assay with IL-6 (THP-1 cells) it was 35%; in assay [2], 0%. Also, the EC50 (in assay [1]; in the assay on SW480 colon cancer cells; in the assay with IL-6 (THP-1 cells); in assay [2]) was above 10 µM in each case.

As for `CC(C)(C)CC(=O)Nc1cncc(-c2ccc3[nH]nc(-c4cc5c(-c6ccccc6F)nccc5[nH]4)c3c2)c1` [Compound 72, N-(5-(3-(4-(2-Fluorophenyl)-1H-pyrrolo[3,2-c]pyridin-2-yl)-1H-indazol-5-yl)pyridin-3-yl)-3,3-dimethylbutanamide], the EC50 was 0.445 µM in assay [1], above 10 µM in the assay with SW480 colon cancer cells, 0.489 µM in the assay on IL-6 (THP-1 cells) and above 10 µM in assay [2]. In addition, the results for the inhibition at 10 µM (in the assay with SW480 colon cancer cells; in assay [2]) were 9.6% and 0%, respectively.

With `Fc1ccccc1-c1nccc2[nH]c(-c3n[nH]c4ccc(-c5ccccn5)cc34)cc12` [Compound 84, 3-(4-(2-Fluorophenyl)-1H-pyrrolo[3,2-c]pyridin-2-yl)-5-(pyridin-2-yl)-1H-indazole], the EC50 in assay [1] was 1.22 µM; with SW480 colon cancer cells, 1.02 µM; with IL-6 (THP-1 cells) it was 1.96 µM; in assay [2], 0.659 µM.

On to `CN(C)c1cncc(-c2ccc3[nH]nc(-c4cc5c(-c6cccnc6)nccc5[nH]4)c3c2)c1` [Compound 91, N,N-Dimethyl-5-(3-(4-(pyridin-3-yl)-1H-pyrrolo[3,2-c]pyridin-2-yl)-1H-indazol-5-yl)pyridin-3-amine], for which the inhibition at 10 µM in assay [1] is 35.7%; in assay [2], 46.9%. For the same molecule, the EC50 in assay [1] is above 10 µM; in the assay with SW480 colon cancer cells it was 8.08 µM; in the assay on IL-6 (THP-1 cells) it was 0.331 µM; in assay [2], above 10 µM.

Consider `c1cc(-c2ccc3[nH]nc(-c4cc5c(N6CCCCC6)nccc5[nH]4)c3c2)ccn1` [Compound 186, 3-(4-(Piperidin-1-yl)-1H-pyrrolo[3,2-c]pyridin-2-yl)-5-(pyridin-4-yl)-1H-indazole], for which the EC50 in assay [1] is 2.1 µM; in the assay with SW480 colon cancer cells, 1.02 µM; in the assay with IL-6 (THP-1 cells), above 10 µM; in assay [2] it was 0.832 µM. Moreover, the inhibition at 10 µM in the assay with IL-6 (THP-1 cells) is 53.9%.

On to `CC(C)CC(=O)Nc1cncc(-c2ccc3[nH]nc(-c4cc5c(N6CCN(C)CC6)nccc5[nH]4)c3c2)c1` [Compound 226, 3-Methyl-N-(5-(3-(4-(4-methylpiperazin-1-yl)-1H-pyrrolo[3,2-c]pyridin-2-yl)-1H-indazol-5-yl)pyridin-3-yl)butanamide], for which the EC50 in assay [1] stood at 1.9 µM; with SW480 colon cancer cells, 2.87 µM; with IL-6 (THP-1 cells), 1.42 µM; in assay [2] it was 2.96 µM.

Source of the values: patent US10463651B2, “3-(1H-pyrrolo[3,2-C]pyridin-2-YL)-1H-indazoles and therapeutic uses thereof” (Samumed, LLC, priority 2015, dated 2019).
